The source of these data is patent publication US20250312468A1, “ANTI-PROTAC ANTIBODIES AND COMPLEXES” (Merck Patent GmbH, priority 2021, published 2025).

For series [1] the following is noted: mouse, in vivo. As to the method:
After shaking/vortexing for 1 min, samples were filtered, (Captiva filtration on polypropylene filter, 0.45 μm pore size) and 120 μL of methanol:water (1:1, v/v) was added to the filtrate and stored at 4° C. until analysis and put in the autosampler before injection. The analysis was carried out on a LC-MS/MS system consisting of an UPLC coupled to a QTRAP 6500+ (Sciex) mass spectrometer. Mobile phase A was water with 0.1% formic acid and mobile phase B was methanol with 0.1% formic acid. […] The chromatography was performed on a Poroshell 120 EC-C18 column, 2.7 μm particles, 3×50 mm, from Agilent Technologies. […] The calibration curve for quantitation was based on standards ranging from 0.5 (Lower Limit of Quantitation) to 10000 (Upper Limit of Quantitation) ng/ml, with 5 calibration points minimum and minimum 75% of calibration standards to be within […] of their nominal values. The total antibody concentration was determined by ligand binding assay (LBA) based on the Meso Scale Diagnostics technology (MSD, LLC., Rockville, MD). […] After a final washing step, 150 μL of 2×MSD Read Buffer T with surfactant (MSD, #R92TC) was added to each well and plates were read on a MESO Quickplex SQ120 plate reader (MSD). […] The lower limit of quantification (LLOQ) was 50 ng/ml.

Another series concerns the target BRD4 (Homo sapiens, UniProt O60885). The series can be described thus: BRD4 Western blot degradation assay in MV411 cells. To be noted: CD33-positive MV411 cells, 24 h, complexes (1:1). More on the design: endogenous in cells; host or cells: MV411. In kind it is cell-based. As to the method: Therefore, CD33-positive MV411 cells were treated with CD33xMIC7+GNE987 or DIGxMIC7+GNE987, as non-binding PAX control, at different concentrations and GNE987 alone as control. MV411 cells were cultured in RPMI-1640 medium supplemented with 10% FCS and penicillin-streptomycin. MV411 cells were seeded in 12-well plates at 1 million cells/ml in 2 ml culture medium and cultured overnight in cell incubator at 37° C. and 5% CO2. Complexation was performed as described in chapter 7.4. GNE987 only was preincubated at identical conditions but in absence of antibody. Subsequently, cells were treated by nanodrop dispersion using a Tecan dispenser with either CD33xMIC7+GNE987 (1:1), DIGxMIC7+GNE987 (1:1) or GNE987 in the respective concentration. All conditions were normalized to 0.0005% (v/V) DMSO and 3.0E-5% Tween20. Cells were incubated for 24 h in cell incubator at 37° C. and 5% CO2. […] Protein concentration was determined via Mettler Toledo UV5Nano photometer. […]
After incubation with corresponding HRP-labeled anti-rabbit/mouse secondary antibodies (GE-Healthcare) at 1:10,000 dilution, blots were detected using ECL solution (Advansta) and x-ray films (GE-Healthcare). Results were analyzed with ImageJ software (version 1.53K, NIH). […]
A general note: Immunoblotting shows a protein as a band on a membrane.

The nature of series [2]: Storage stability of antibody-PROTAC complexes (DLS, SE-HPLC, visible changes). In kind it is physicochemical. To be noted: no storage time/temperature printed. Here is the method:
Storage stability of antibody-PROTAC complexes was assessed after complexation (6 mg/ml, 650 rpm, 3 h, rt) by incubation in the fridge at 4° C. over 96 h as well as snap-freezing the complexes and storage at −80° C. for 24 h or at −20° C. at 96 h. Subsequently the samples were checked for visible changes, the polydispersity was assessed using DLS measurements and the loading was measured via SE-HPLC (Table 6). Samples with polydispersity up to 15% are considered monodisperse.

With `Cc1ncsc1-c1ccc(CNC(=O)[C@@H]2C[C@@H](O)CN2C(=O)[C@@H](NC(=O)CCCCCCCCCCNC(=O)c2cc3c(cc2CS(C)(=O)=O)-c2cn(C)c(=O)c4[nH]cc(c24)CN3c2ncc(F)cc2F)C(C)(C)C)cc1` [GNE987], the “time after which PROTAC GNE987 concentration fell below LLOQ” value in series [1] is reported as 25 h. Moreover, the “half-life of the PROTAC GNE987” value in series [1] (iv, 0.4 mg/kg) stood at 5.8 h. Further, the “BRD4 degradation (Western blot)” value on BRD4 is reported as “BRD4 degradation was found”. In addition, the Visible evaluation result in series [2] is “precipitation”.
